# Counter-ions that a name gives are not always drawn.
row,Structure (SMILES),melting point [°C]
1,"Cc1nn(C/C(F)=C/CN)c(C)c1Cc1ccc(S(=O)(=O)N(C)C)cc1 (as salt: hydrochloride) [Compound 2, (Z)-4-((1-(4-amino-2-fluorobut-2-en-1-yl)-3,5-dimethyl-1H-pyrazol-4-yl)methyl)-N,N-dimethylbenzenesulfonamide hydrochloride]",209 to 211
2,"Cc1nn(C/C(F)=C/CN)c(C)c1Cc1ccc(S(=O)(=O)N(C)C)cc1Cl (as salt: hydrochloride) [Compound 3, (Z)-4-((1-(4-amino-2-fluorobut-2-en-1-yl)-3,5-dimethyl-1H-pyrazol-4-yl)methyl)-3-chloro-N,N-dimethylbenzenesulfonamide hydrochloride]",185 to 187
3,"Cc1nn(C/C(F)=C/CN)c(C)c1Cc1ccc(S(C)(=O)=O)cc1 (as salt: hydrochloride) [Compound 4, (Z)-4-(3,5-dimethyl-4-(4-(methylsulfonyl)benzyl)-1H-pyrazol-1-yl)-3-fluorobut-2-en-1-amine hydrochloride]",127 to 137
4,"Cc1nn(C/C(F)=C/CN)c(C)c1Cc1ccc(S(=O)(=O)N2CCOCC2)cc1 (as salt: hydrochloride) [Compound 6, (Z)-4-(3,5-dimethyl-4-(4-(morpholinosulfonyl)benzyl)-1H-pyrazol-1-yl)-3-fluorobut-2-en-1-amine hydrochloride]",190 to 197
5,"Cc1nn(C/C(F)=C/CN)c(C)c1Cc1ccc(S(=O)(=O)N2CCCC2)cc1 (as salt: hydrochloride) [Compound 7, (Z)-4-(3,5-dimethyl-4-(4-(pyrrolidin-1-ylsulfonyl)benzyl)-1H-pyrazol-1-yl)-3-fluorobut-2-en-1-amine hydrochloride]",181 to 184
6,"Cc1nn(C/C(F)=C/CN)c(C)c1Cc1ccc(S(=O)(=O)N(C)C)c2ccccc12 (as salt: hydrochloride) [Compound 9, (Z)-4-((1-(4-amino-2-fluorobut-2-en-1-yl)-3,5-dimethyl-1H-pyrazol-4-yl)methyl)-N,N-dimethyl naphthalene-1-sulfonamide hydrochloride]",70 to 80
7,"Cc1nn(Cc2ccc(S(=O)(=O)N(C)C)cc2)c(C)c1C/C(F)=C/CN (as salt: hydrochloride) [Compound 10, (Z)-4-((4-(4-amino-2-fluorobut-2-en-1-yl)-3,5-dimethyl-1H-pyrazol-1-yl)methyl)-N,N-dimethylbenzenesulfonamide hydrochloride]",180 to 185
8,"Cc1nn(C/C(F)=C/CN)c(C)c1Cc1ccc(C(=O)N(C)C)cc1 (as salt: hydrochloride) [Compound 14, (Z)-4-((1-(4-amino-2-fluorobut-2-en-1-yl)-3,5-dimethyl-1H-pyrazol-4-yl)methyl)-N,N-dimethylbenzamide hydrochloride]",75 to 82
9,"Cc1nn(C/C(F)=C/CN)c(C)c1Cc1ccc(S(C)(=O)=O)c(Cl)c1 (as salt: hydrochloride) [Compound 16, (Z)-4-(4-(3-chloro-4-(methylsulfonyl)benzyl)-3,5-dimethyl-1H-pyrazol-1-yl)-3-fluorobut-2-en-1-amine hydrochloride]",105 to 115
10,"CNS(=O)(=O)c1ccc(Cn2nc(C)c(C/C(F)=C/CN)c2C)c(Cl)c1 (as salt: hydrochloride) [Compound 20, (Z)-4-((4-(4-amino-2-fluorobut-2-en-1-yl)-3,5-dimethyl-1H-pyrazol-1-yl)methyl)-3-chloro-N-methylbenzenesulfonamide hydrochloride]",80 to 86
11,"CNS(=O)(=O)c1ccc(Cn2nc(C)c(C/C(F)=C/CN)c2C)c(C(F)(F)F)c1 (as salt: hydrochloride) [Compound 23, (Z)-4-((4-(4-amino-2-fluorobut-2-en-1-yl)-3,5-dimethyl-1H-pyrazol-1-yl)methyl)-N-methyl-3-(trifluoromethyl)benzenesulfonamide hydrochloride]",171 to 172
12,"Cc1nn(Cc2ccc(S(C)(=O)=O)c(Cl)c2)c(C)c1C/C(F)=C/CN (as salt: hydrochloride) [Compound 24, (Z)-4-(1-(3-chloro-4-(methylsulfonyl)benzyl)-3,5-dimethyl-1H-pyrazol-4-yl)-3-fluorobut-2-en-1-amine hydrochloride]",92 to 94

# Results, then the molecule that gave them:
row,melting point [°C],Structure (SMILES)
1,100 to 103,"CNS(=O)(=O)c1cc(F)c(Cn2nc(C)c(C/C(F)=C/CN)c2C)cc1F (as salt: hydrochloride) [Compound 26, (Z)-4-((4-(4-amino-2-fluorobut-2-en-1-yl)-3,5-dimethyl-1H-pyrazol-1-yl)methyl)-2,5-difluoro-N-methylbenzenesulfonamide hydrochloride]"
2,157 to 159,"CCOC(=O)c1c(Cc2ccc(S(=O)(=O)N(C)C)cc2)c(C)nn1C/C(F)=C/CN (as salt: hydrochloride) [Compound 27, (Z)-ethyl 1-(4-amino-2-fluorobut-2-enyl)-4-(4-(N,N-dimethylsulfamoyl)benzyl)-3-methyl-1H-pyrazole-5-carboxylate hydrochloride]"
3,77 to 80,"Cc1nn(C/C(F)=C/CN)c(C(=O)N(C)C)c1Cc1ccc(S(=O)(=O)N(C)C)cc1 (as salt: hydrochloride) [Compound 29, (Z)-1-(4-amino-2-fluorobut-2-enyl)-4-(4-(N,N-dimethylsulfamoyl)benzyl)-N,N,3-trimethyl-1H-pyrazole-5-carboxamide hydrochloride]"
4,164 to 166,"Cc1nn(C/C(F)=C/CN)c(C(=O)O)c1Cc1ccc(S(=O)(=O)N(C)C)cc1 (as salt: hydrochloride) [Compound 30, (Z)-1-(4-amino-2-fluorobut-2-enyl)-4-(4-(N,N-dimethylsulfamoyl)benzyl)-3-methyl-1H-pyrazole-5-carboxylic acid hydrochloride]"
5,262 to 264,"Cc1c(Cc2ccc(S(=O)(=O)N(C)C)cc2)c(C(=O)O)nn1C/C(F)=C/CN (as salt: hydrochloride) [Compound 31, (Z)-1-(4-amino-2-fluorobut-2-enyl)-4-(4-(N,N-dimethylsulfamoyl)benzyl)-5-methyl-1H-pyrazole-3-carboxylic acid hydrochloride]"

# From patent publication US20200069648A1, “HALOALLYLAMINE PYRAZOLE DERIVATIVE INHIBITORS OF LYSYL OXIDASES AND USES THEREOF” (Pharmaxis Ltd., priority 2017, published 2020)
